Laboratory results reported in patent US11026945B2, “Protein kinase RNA-like endoplasmic reticulum kinase (PERK) inhibitors for prevention and/or treatment of lung injury and/or inflammation” (THE TRUSTEES OF THE UNIVERSITY OF PENNSYLVANIA, priority 2016, dated 2021).
Where two headings read alike, the source gives them in different places.

Legend:
AEC-I monolayers = assay: Stretch-induced cell death, ethidium homodimer staining; type: cell-based, rat; settings: stretched monolayers, 1 μM PI pretreatment
Description: To assess the effect of ISR inhibition on stretch-induced cell death, dead to live cell ratio was quantified with triple Ethidium homodimer (dead cells)-Calcinein (live cells) and nuclear (DAPI) stain (Thermo Fisher Scientific). Fluorescent light emission from cells was captured with fluorescent microscopy and quantified in the same fashion as described in the “Mechanical stretch activates ISR and cell death in AEC-I” section. N=30 rats were used to obtain data from N=5 biological replicates/condition for each treatment group. Data was expressed as the number of dead cells per total cells as depicted in FIG. 3G. […]
To measure permeability, the silastic membranes were coated with biotinylated fibronectin and cells were cultured on the apical surface. […] Light emission at 488 nm was measured for monolayers using fluorescent microscopy (Nikon TE300, Melville, N.Y.). […] The emitted fluorescence is proportional to the monolayer damage caused by stretch and is detectable by fluorescent microscopy. […] The maximum pixel intensity in the background of unstretched-untreated monolayers was measured and used as a threshold to exclude unstained regions. The percentage of each image area above the threshold intensity was determined and then divided by the value for the unstretched control group to calculate the normalized area percentage (nArea) of each image. […] Data were expressed as ±SEM. […]

rat model of VILI = tested on: rat model of VILI
Description: To establish the feasibility of translating the in vitro findings to in vivo, a rat model of VILI was used. Animals were pretreated via oral gavage with either 30 mg/kg PI or its vehicle for 4 hours prior to the start of the experiment. Rats were ventilated with 20 ml/kg tidal volume via tracheostomy for 4 hours without positive end expiratory pressure (PEEP) or a recruitment maneuver to induce injury. The lung tissue of ventilated animals was compared to spontaneously breathing controls. […] To confirm these findings, immunofluorescence analysis of thin cut sections was performed using a Zeiss LSM 880 laser scanning confocal microscope (FIG. 19).
Groups of animals (Sprague-Drawly rats, 250 to 300 g weight purchased from Charles River Laboratories, N=150)) were pretreated with one time dose of 3, 10 and 30 mg/kg of PI (GSK2606414) or its vehicle (0.1% TWEEN 80 in 0.5% […]) via oral gavage 4 hours before the start of the experiment. Subsequently, animals were randomized in the following conditions: • 1. Non-ventilated controls pretreated with drug vehicle (C/VC). These animals were sacrificed 8 hours post gavage. • 2. Low tidal volume ventilation group pretreated with vehicle (LTV/VC). These animals were anesthetized 4 hours post gavage and ventilated via tracheostomy for 4 hours with 6 ml/kg tidal volume, 3-5 cmH2O PEEP and lungs were recruited with 30 cmH2O pressure of air hourly. Animals were sacrificed at the end of 4 hours ventilation. This group will served as a second control to assess lung injury parameters in an optimized ICU care situation. • 3. High tidal volume ventilation group pretreated with vehicle (HTV/VC). Animals were ventilated with 20 ml/kg tidal volume without PEEP or recruitment maneuver to induce lung injury and sacrificed at the end of mechanical ventilation period. • 4. Controls with PI treatment (C/PI). Animals were sacrificed after 8 hours of PI treatment. • 5. High tidal volume mechanical ventilation with PI treatment (HTV/PI). Animals were sacrificed at the end of mechanical ventilation period. At the end of the experiment, lung tissue, BAL and serum was collected from all animals. To determine the optimal dose of PI in VILI, the following parameters were measured: BAL total protein measurement (BioRad Protein Assay, BioRad, Hercules, Calif.); lung tissue histology with hematoxylin-eosin (H&E) staining for lung injury scoring; BAL total and differential cell count; Serum and BAL cytokine analysis for IL-18 (R&D Systems, Minneapolis, Minn., USA); lung tissue was collected for future RNA and protein expression studies; blood pressure and heart rate recording (Coda Monitor, Kent Scientific, Torrington, Conn.); and/or animal mortality prior to the end of the experiment.
Rats (N=32) received PERK inhibitor GSK 2606414 (PI) or vehicle control (0.1% Tween 80+0.5% hydroxypropyl-methylcellulose (VC)) via oral gavage 4 hours before the start of mechanical ventilation in 2.5 ml volume bolus. Subsequently, animals were randomized to receive mechanical ventilation, or they were let to breathe spontaneously (N=8/group). For the mechanical ventilation protocol, rats were kept under general anesthesia for the entire procedure. Their breathing, cardiac function and neurological responses were continuously monitored to minimize pain and distress. Induction and maintenance anesthesia was performed with inhaled 2-4% isoflurane. If additional anesthesia was necessary to keep the animal in surgical plane at the time of induction, it was given an intraperitoneal injection of a mixture of ketamine (75-100 mg/kg) and xylazine (5-10 mg/kg). To minimize injectable anesthesia and improve analgesia use, the subcutaneous tissue of the tracheostomy site was injected with 1% lidocaine.

[1] = CPI: spontaneously breathing rats, 30 mg/kg four hours prior to sacrifice
[2] = VPI: rats ventilated 4 hours with 20 ml/kg tidal volume, 30 mg/kg four hours prior to ventilation
[3] = ventilated rats, 30 mg/kg PI oral
[4] = ventilated rats, 30 mg/kg oral gavage

Cn1cc(-c2ccc3c(c2)CCN3C(=O)Cc2cccc(C(F)(F)F)c2)c2c(N)ncnc21 [PI, 1-[5-(4-Amino-7-methyl-7H-pyrrolo[2,3-d]pyrimidin-5-yl)indolin-1-yl]-2-(3-trifluoromethylphenyl)ethanone]
stretch-induced cell death (AEC-I monolayers): decreased
Macrophage cell count (rat model of VILI; [1]): 0.77 ± 0.17 ×10^3 cells/ml BAL
Neutrophil cell count (rat model of VILI; [1]): 0.003 ± 0.003 ×10^3 cells/ml BAL
Total cell count (rat model of VILI; [1]): 1.44 ± 0.23 ×10^3 cells/ml BAL
FITC-labeled albumin permeability index (rat model of VILI; VPI vs V, 30 mg/kg oral gavage): decreased
Macrophage cell count (rat model of VILI; [2]): 1.28 ± 0.26 ×10^3 cells/ml BAL
Neutrophil cell count (rat model of VILI; [2]): 0.03 ± 0.009 ×10^3 cells/ml BAL
Total cell count (rat model of VILI; [2]): 1.75 ± 0.14 ×10^3 cells/ml BAL
dose sufficient to inhibit VILI (rat model of VILI; dose titration 3, 10 and 30 mg/kg, oral gavage 4 hours before ventilation): 10 mg/kg
alveolocapillary permeability in VILI (FITC-labeled albumin extravasation), effect of increasing dose (rat model of VILI; dose titration 3-30 mg/kg, experiment partially completed): gradual effect on reducing alveolocapillary permeability
immunosuppression (BAL cell count) (rat model of VILI; spontaneously breathing animals, 30 mg/kg): did not result in immunosuppression
Ventilation-induced BAL total protein content (rat model of VILI; [3]): significantly reduced
lung injury score (rat model of VILI; [3]): significantly reduced
IL-18 BAL levels (rat model of VILI; [4]): reduced
serum IL-18 levels (rat model of VILI; [4]): did not affect
